Data: US20120093946A1, “USE OF CARBON DIOXIDE SUPPLYING MEANS FOR MUSCLE STRENGTHENING AND METHOD OF INCREASING CATTLE MEAT THEREBY” (priority 2007, published 2012)

Tests used:
rat lower thigh muscle = assay: Increase in amount of rat muscle with no exercise load applied, three months; assay type: in vivo, Wister rats
Description: Nine male Wister rats (5-week old at the time when the experiment was started) were used.
In the CO2 group, the hair was removed from the right and left lower thighs of six rats under anesthesia. Then, the absorption aid 4 of carbon dioxide described in Example 5 in Patent Document 7 (Japanese Patent Unexamined Publication
No. 2004-517345) was applied to only the right lower thigh (hereinafter, referred to as a “treated limb”). Next, the rat lower body was covered with a polyethylene bag type sealing enclosure member provided with a hole through which the left hind limb comes out so that only the right hind limb absorbs carbon dioxide. Then, carbon dioxide was filled in the sealing enclosure member by using a carbon dioxide gas cylinder so as to inflate the sealing enclosure member. In order to always secure a sufficient amount of carbon dioxide in the sealing enclosure member, carbon dioxide was added at any time, so that the sealing enclosure member was filled with carbon dioxide for ten minutes. The carbon dioxide concentration inside the sealing enclosure member was set to 100%. […]
Three months later, the rat body weights were measured and the muscle was collected from the right and left lower thighs. The muscle wet weight of the collected muscle was measured, followed by detecting growth a acceleration indicating proteins of muscle fibers, MyoD and Myogenin (see Atsuko HARA et al., “Expression of myosin heavy chain isoforms, myogenin and MyoD in the course of regeneration of skeletal muscle,” Journal of Health Sciences of Hiroshima University, Vol. 2 (1): 12-18, 2002), and IGF-IR [see Junichi SUZUKI et al., “Effect of endurance training with L-arginine supplementation on expression of IGF-1 receptor in rat skeletal muscles” Research for Winter Sports, (the Proceedings of Research and Education Center for Winter Sports, Hokkaido University of Education), Vol. 8 (1) 1-7, 2005], by Western blotting. The resultant bands were analyzed on the analysis software (NIH-Image) so as to quantify each growth acceleration indicating protein. […]

[1] = tested on: muscle strength of the quadriceps femoris and the hamstrings; assay: Promotion of muscle strengthening by stretching exercise on isometric torque of legs, transdermal carbon dioxide absorption on treated leg; assay type: in vivo, human
Description: Eight subjects including two subjects who played sports three times or more a week (hereinafter, referred to as “athlete”) and six subjects who played sports two times or less a week (hereinafter, referred to as “non-athlete”) participated in the experiment. Each subject did warming-up by pedaling a gym bicycle for ten minutes. Next, each subject did a stretching exercise on isometric torque of the quadriceps femoris 300 times or more by using training machine MyoretRZ-450 (Kawasaki Heavy Industries, Ltd.). Thus, an exercise load was applied to the quadriceps femoris. Then, the muscle strength of the quadriceps femoris and the muscle strength of the hamstrings to which an exercise load was not applied were measured by using MyoretRZ-450.
After the training was completed, the carbon dioxide absorption aid 4 described in Example 5 in Patent Document 7 (Japanese Patent Unexamined Publication No. 2004-517345) was applied to one determined leg (hereinafter, referred to as a “treated leg”). The treated leg was covered with an 80 cm-long polypropylene bag type sealing enclosure member equipped with a check valve. Then, the member was filled with carbon dioxide from a carbon dioxide gas cylinder and stood still for ten minutes. The carbon dioxide concentration was set to 80% (800,000 ppm). No treatment was given to the other leg (hereinafter, referred to as a “non-treated leg”). The training was carried out only once, this time.
Each subject allowed the treated leg to absorb carbon dioxide for ten minutes once a day as mentioned above by using the carbon dioxide supplying means for muscle strengthening of the present invention (by using a carbon dioxide external administration device as the carbon dioxide supplying means). Thereafter, the muscle strength of the quadriceps femoris and the muscle strength of the hamstrings were measured by using MyoretRZ-450.
On day 4 and later after the experiment was started, neither absorption of carbon dioxide nor stretching exercise on isometric torque of the quadriceps femoris was carried out. On day 7 after the experiment was started, the muscle strengths of the quadriceps femoris and the hamstrings were measured by using MyoretRZ-450.

grip strength = assay: Promotion of kaatsu training effect, grip strength; assay type: in vivo, human
Method: Two subjects participated in the experiment. The experiment was carried out according to Abe T. et al. (2006) Electromyographic responses of arm and chest muscle during bench press exercise with and without KAATSU. Int. J. Kaatsu Training Res. 2:15-18. The grip strengths of both hands of each subject were measured before the experiment was started. Next, the absorption aid 4 of carbon dioxide described in Example 5 in Patent Document 7 (Japanese Patent Unexamined Publication No. 2004-517345) was applied to the entire left arm of each subject, and the left arm was covered with an 80 cm-long polypropylene bag type sealing enclosure member equipped with a check valve. A cuff of blood pressure manometer was worn on the upper arm with the sealing enclosure member applied. Firstly, the upper arm was pressurized with a cuff pressure of 50 mmHg for 30 seconds. Next, the pressure was released once for 10 seconds, and then the upper arm was pressurized while gradually increasing the cuff pressure to 70 mmHg. When the cuff pressure reached 70 mmHg, the pressure was fixed. Then, carbon dioxide was filled in the sealing enclosure member from a carbon dioxide gas cylinder so as to inflate the sealing enclosure member. […]
Three days after the experiment, the grip strength of both hands of each subject was measured.

[2] = tested on: muscle strengths of the quadriceps femoris and the hamstrings; assay: Promotion of muscle strengthening with no exercise load applied, three months; assay type: in vivo, human; conditions: month 3, no exercise load, 80% CO2 ten minutes at least once a week
Description: Thirteen subjects (all males, aged from 27 to 43) participated in the experiment. In each subjects, the absorption aid 4 of carbon dioxide described in Example 5 in Patent Document 7 (Japanese Patent Unexamined Publication No. 2004-517345) was given to one determined leg (hereinafter, referred to as a “treated leg”). The treated leg was covered with an 80 cm-long polypropylene bag type sealing enclosure member equipped with a check valve. Then, carbon dioxide was filled in the member from a carbon dioxide gas cylinder and stood still for ten minutes. The carbon dioxide concentration was set to 80% (800,000 ppm). The treatment was carried out at least once a week for three months. No treatment was given to the other leg (hereinafter, referred to as a “non-treated leg”). Before and three months after the experiment was started, the muscle strengths of the treated leg and the non-treated leg were measured (the muscle strengths of the quadriceps femoris and the hamstrings were measured by using MyoretRZ-450).

[3] = 100% CO2 ten minutes twice a week
[4] = day 7, non-athletes, pre-ex defined as 100%

O=C=O [carbon dioxide]
muscle wet weight per body weight, CO2 group as compared with CONTROL group (rat lower thigh muscle; [3]): increase
muscle wet weight, treated leg as compared with non-treated leg in the CO2 group (rat lower thigh muscle; [3]): remarkable increase
amount of growth acceleration indicating protein (MyoD, Myogenin, IGF-IR) extracted from the muscle, CO2 group versus CONTROL group (rat lower thigh muscle; Western blotting): increased
blood pressure and heart rate of the subjects during the absorption of carbon dioxide ([1]; after exercise load, 80% CO2, ten minutes, treated leg): did not change
muscle strengthening of the quadriceps femoris in the treated leg ([1]; day 7, all subjects, pre-ex defined as 100%, CO2 absorption stopped from day 4): 20%
muscle strengthening of the hamstrings (no exercise load) in the treated leg ([1]; day 7, all subjects, pre-ex defined as 100%, significant at P=5%): about 15%
muscle strengthening of the hamstrings (no exercise load) in the treated leg, non-athletes [1, 4]: about 20%
muscle strengthening of the quadriceps femoris in the treated leg, non-athletes [1, 4]: about 30%
muscle strengthening of the quadriceps femoris, treated leg compared with non-treated leg ([1]; days 2 to 4 of the experiment, CO2 ten minutes once a day): promoted
recovery of the muscle strength of the quadriceps femoris, treated leg versus non-treated leg ([1]; post-CO2, day of exercise load, 80% CO2, ten minutes): faster
muscle strengthening rate (grip strength) compared with only pressurizing (grip strength; day 3 after kaatsu training, treated arm versus non-treated arm): two-times
muscle pain and fatigue accompanying kaatsu training (grip strength; left hand with carbon dioxide absorption versus only pressurizing and exercise): reduced
muscle strengthening of the quadriceps femoris in the treated leg as compared with the non-treated leg ([2]; P=1%): about 15%
muscle strengthening of the hamstrings in the treated leg as compared with the non-treated leg ([2]; P=5%): about 15%
